Experimental data from US20110015225A1, “Heterocyclic compound” (Takeda Pharmaceutical Company Limited, priority 2008, published 2011).

These compounds were tested against MCH receptor (SLC-1) (UniProt Q99705) (assay: MCH receptor antagonistic activity using GTPγS binding assay). Conditions: [35S]-GTPγS binding, membrane fractions of SLC-1 expression CHO cells, 3×10^−10 M MCH, 25° C. 1 hr; read-out: Inhibitory Activity (IC50 value: nM).
Assay type: biochemical, human
Description: Using human SLC-1 expression CHO cell clone 57 and rat SLC-1 expression CHO cell clone 44 described in WO01/82925, membrane fractions of SLC-1 expression CHO cells were prepared by the following method. In phosphate buffered saline (pH 7.4) supplemented with 5 mM EDTA (ethylenediaminetetraacetic acid) were suspended human and rat SLC-1 expression CHO cells (1×10^8) and centrifuged. Homogenate buffer (10 ml, 10 mM […], 5 mM EDTA, pH 7.5) was added to the pellets of the cells and, using Polytron Homogenizer, the mixture was homogenated. The supernatant obtained after centrifugation at 400×g for 15 min was further centrifuged at 100,000×g for 1 hr to give precipitate of the membrane fraction. The precipitate was suspended in 2 ml of an assay buffer [50 mM Tris-HCl (pH 7.5), 1 mM EDTA, 0.1% BSA (bovine serum albumin), 10 mM MgCl2, 100 mM NaCl, 1 μM GDP (guanosine 5′-diphosphate), 0.25 mM PMSF (phenylmethylsulfonyl fluoride), […]] and centrifuged at 100,000×g for 1 hr. The membrane fraction recovered as precipitate was suspended again in 20 ml of an assay buffer, and after dispensing, preserved at −80° C. and used upon thawing each time when in use.
The MCH receptor antagonistic activity of the test compound was determined as follows. The membrane fractions of SLC-1 expression CHO cells (171 μl) diluted with an assay buffer was dispensed to a polypropylene 96 well plate and 3×10^−10 M MCH (2 μl) diluted with DMSO solution, test compound solution (2 μl) diluted to various concentrations and [^35S]-Guanosine 5′-(γ-thio)triphosphate (25 μl, Daiichi Pure Chemicals Co., Ltd.) were respectively added (cellular membrane final concentration: 20 μg/ml, [^35S]-Guanosine 5′-(γ-thio)triphosphate final concentration: 0.33 nM). The reaction mixture was reacted at 25° C. for 1 hr with stirring, suction filtered with a glass filter (GF-C) and washed 3 times with a wash solution (300 μl, 50 mM Tris-HCl buffer, pH 7.5). Liquid scintillator ([…]) was added to the glass filter and the residual radioactivity was determined by a liquid scintillation counter.
Binding inhibition (%)=(radioactivity upon addition of test compound and MCH−radioactivity upon addition of DMSO solution)/(radioactivity upon addition of MCH−radioactivity upon addition of DMSO solution)×100
From the binding inhibition (%), IC50 of the test compound was calculated.

SMILES	IC50 [nM]
Cc1c(NC(=O)c2ccc(OCC3CC3)cc2)ccc2cc(CNCCNS(C)(=O)=O)cnc12 [Ex. 6, 4-(cyclopropylmethoxy)-N-{8-methyl-3-[({2-[(methylsulfonyl)amino]ethyl}amino)methyl]quinolin-7-yl}benzamide]	4
Cc1c(NC(=O)c2ccc(OCCC3CC3)cc2)ccc2cc(CNC3CCS(=O)(=O)CC3)cnc12 [Ex. 20, 4-(2-cyclopropylethoxy)-N-(3-{[(1,1-dioxidotetrahydro-2H-thiopyran-4-yl)amino]methyl}-8-methylquinolin-7-yl)benzamide]	1.4
Cc1c(NC(=O)c2ccc(OCC3CC3)cc2)ccc2cc(CNC3CCN(S(C)(=O)=O)CC3)cnc12 [Ex. 8, 4-(cyclopropylmethoxy)-N-[8-methyl-3-({[1-(methylsulfonyl)piperidin-4-yl]amino}methyl)quinolin-7-yl]benzamide]	3.9
Cc1c(NC(=O)c2ccc(OCC3CC3)cc2)ccc2cc(CNCCCNS(C)(=O)=O)cnc12 [Ex. 13, 4-(cyclopropylmethoxy)-N-{8-methyl-3-[({3-[(methylsulfonyl)amino]propyl}amino)methyl]quinolin-7-yl}benzamide]	2.8
Cc1c(NC(=O)c2ccc(OCC3CC3)cc2)ccc2cc(CNCC3CCS(=O)(=O)CC3)cnc12 [Ex. 16, 4-(cyclopropylmethoxy)-N-[3-({[(1,1-dioxidotetrahydro-2H-thiopyran-4-yl)methyl]amino}methyl)-8-methylquinolin-7-yl]benzamide]	1.8

Next, values leading:

IC50 [nM]	SMILES
4.6	Cc1c(NC(=O)c2ccc(OCC3CC3)cc2)ccc2cc(CNCCCC[S+](C)[O-])cnc12 (stereo not shown) [Ex. 26, 4-(cyclopropylmethoxy)-N-[8-methyl-3-({[4-(methylsulfinyl)butyl]amino}methyl)quinolin-7-yl]benzamide]
6.7	CC1=C(CNC2CCS(=O)(=O)CC2)CCc2cc(NC(=O)c3ccc(OCC4CC4)cc3)ccc21 [Ex. 47, 4-(cyclopropylmethoxy)-N-(6-{[(1,1-dioxidotetrahydro-2H-thiopyran-4-yl)amino]methyl}-5-methyl-7,8-dihydronaphthalen-2-yl)benzamide]
4.7	Cc1c(NC(=O)c2ccc(C#CC3CC3)cc2)ccc2cc(CNCC3(O)CCS(=O)(=O)CC3)cnc12 [Ex. 43, 4-(cyclopropylethynyl)-N-[3-({[(4-hydroxy-1,1-dioxidotetrahydro-2H-thiopyran-4-yl)methyl]amino}methyl)-8-methylquinolin-7-yl]benzamide]
2.2	Cc1c(NC(=O)c2ccc(C#CC3CC3)cc2)ccc2cc(CNC3CCS(=O)(=O)CC3)cnc12 [Ex. 41, 4-(cyclopropylethynyl)-N-(3-{[(1,1-dioxidotetrahydro-2H-thiopyran-4-yl)amino]methyl}-8-methylquinolin-7-yl)benzamide]
1.5	Cc1c(NC(=O)c2ccc(OCCC3CC3)cc2F)ccc2cc(CNC3CC[S+]([O-])CC3)cnc12 (stereo not drawn) [Ex. 24, 4-(2-cyclopropylethoxy)-2-fluoro-N-(8-methyl-3-{[(trans-1-oxidotetrahydro-2H-thiopyran-4-yl)amino]methyl}quinolin-7-yl)benzamide]
